Columns and labels:
[1] = Anti cancer activity was determined as lethal dose; assay type: organism-based; conditions: mouse, in vivo
Mus musculus = species: Mus musculus; test: Anti cancer activity was determined as effective dose; assay type: functional

| Compound | LD50 [1] [mg/kg] | ED50 (Mus musculus) [mg/kg] |
| --- | --- | --- |
| C=C1C2=C(C(=O)C(C)=C(N)C2=O)N2C[C@@H]3N[C@@H]3[C@]12OC | 75 | 18 |
| C=C1C2=C(C(=O)C(C)=C(OC)C2=O)N2C[C@H]3[C@H](N3C)[C@]12OC (some centres not stated) [MITOMYCIN G] | 22 | 35 |
| COC1=C(C)C(=O)C2=C(C1=O)[C@@H](COC(N)=O)[C@@]1(OC)[C@H]3N[C@H]3CN21 [MITOMYCIN A] | 2.1 | 1.1 |
| C=C1C2=C(C(=O)C(C)=C(OC)C2=O)N2C[C@@H]3N[C@@H]3[C@]12OC | 13 | 7.5 |
| C=C1C2=C(C(=O)C(C)=C(N)C2=O)N2C[C@H]3[C@H](N3C)[C@]12O (some centres not stated) [MITOMYCIN Z] | 210 | 82 |
| C=C1C2=C(C(=O)C(C)=C(N)C2=O)N2C[C@H]3[C@H](N3C)[C@]12OC (some centres not stated) [MITOMYCIN K] | 130 | 100 |
| CO[C@@]12[C@H](COC(N)=O)C3=C(C(=O)C(C)=C(N)C3=O)N1C[C@H]1[C@@H]2N1C (some centres not stated) [PORFIROMYCIN] | 57 | 22 |
| C=C1C2=C(C(=O)C(C)=C(OC)C2=O)N2C[C@H]3[C@H](N3C)[C@]12O (some centres not stated) [MITOMYCIN H] | 12 | 6.8 |
| CO[C@@]12[C@H](COC(N)=O)C3=C(C(=O)C(C)=C(N)C3=O)N1C[C@@H]1N[C@@H]12 [MITOMYCIN] |  | 4.4 |

From ChEMBL document CHEMBL1126692, “Structure-activity relationships for mitomycins. Application of the distance and charge analysis method” (J Med Chem, 1993)
